{"source": "ChEMBL document CHEMBL2029318", "about": "“Synthesis and SAR of selective small molecule neuropeptide Y Y2 receptor antagonists” (Bioorg Med Chem Lett, 2012)", "key": {"[1]": {"target": "T1, Neuropeptide Y receptor type 1 (Homo sapiens) (UniProt P25929)", "T1 sequence (whole entry)": "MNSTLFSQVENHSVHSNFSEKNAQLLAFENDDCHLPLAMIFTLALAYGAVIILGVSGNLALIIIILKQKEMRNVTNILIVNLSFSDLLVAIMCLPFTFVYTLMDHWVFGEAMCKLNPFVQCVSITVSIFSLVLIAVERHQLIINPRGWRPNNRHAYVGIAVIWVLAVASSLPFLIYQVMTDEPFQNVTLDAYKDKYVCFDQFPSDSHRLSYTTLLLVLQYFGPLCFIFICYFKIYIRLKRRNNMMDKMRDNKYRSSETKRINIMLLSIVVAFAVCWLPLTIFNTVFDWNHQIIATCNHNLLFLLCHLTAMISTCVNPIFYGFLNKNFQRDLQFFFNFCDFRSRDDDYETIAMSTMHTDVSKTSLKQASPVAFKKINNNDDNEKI", "assay": "Antagonist activity at neuropeptide Y receptor Y1 at 10 uM", "type": "functional"}, "[2]": {"target": "T2, Neuropeptide Y receptor type 2 (Homo sapiens, UniProt P49146)", "T2 sequence (P49146 whole entry)": "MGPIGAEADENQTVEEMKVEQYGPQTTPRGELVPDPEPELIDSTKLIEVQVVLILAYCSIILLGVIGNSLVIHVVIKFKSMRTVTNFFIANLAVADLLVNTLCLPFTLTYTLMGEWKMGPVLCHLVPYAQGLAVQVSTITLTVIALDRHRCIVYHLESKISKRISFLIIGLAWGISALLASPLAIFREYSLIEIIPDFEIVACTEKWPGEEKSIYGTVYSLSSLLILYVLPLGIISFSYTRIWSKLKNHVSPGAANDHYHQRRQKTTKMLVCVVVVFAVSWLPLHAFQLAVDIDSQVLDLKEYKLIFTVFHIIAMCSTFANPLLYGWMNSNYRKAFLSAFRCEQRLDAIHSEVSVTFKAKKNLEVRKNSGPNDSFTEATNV", "assay": "Partial antagonist activity at neuropeptide Y receptor Y2", "type": "functional"}}, "note": "Active and inactive are the calls of the source. No rule for the calls is given here."}
{"smiles": "COc1cccc(NC(=S)N2CCC(C(O)(c3ccccc3)c3ccccc3)CC2)c1", "values": [{"measurement": "Activity", "setting": "[1]", "result": "inactive"}, {"measurement": "IC50", "setting": "[2]", "result": 8.16, "unit": "µM"}]}
